Test results reported in US20150366788A1, “[…] EXTRACTS AND METHODS OF USE” (AVON PRODUCTS, INC, priority 2013, published 2015).

System: dorsal forearm skin of healthy female Caucasian subjects
Experiment: In vivo biopsy (forearm patch, histology endpoints)
Design: species or system human
Conditions: 0.05% active (positive control), semi-occlusion patch, 3 weeks
Protocol: Healthy female Caucasian subjects aged 30-65, with skin type II or III and mild to moderate photo damage, were treated on the dorsal forearm for 3 weeks (3 consecutive rounds of 5×24 hour) under semi-occlusion patches. Test articles including active ingredients, vehicle controls, and retinol were applied in a randomized allocation on 6 sites on each forearm. The application dose was 2 mg/cm^2. After 3 week treatment, a 2 mm punch biopsy was obtained from each treatment site and fixed in 10% buffered formalin. Tissue samples then embedded in paraffin, sectioned (5 μm thickness), and stained for skin markers after re-hydration. […] Retinol at a active concentration of 0.05% was used a positive control. Retinol use at a 0.05% active concentration in the semi-occlusion patch vehicle formulation yielded a visual score of approximately 0.56 out of a 4 point scale in HE staining (measuring hematoxylin and eosin staining, an indication of viable epidermal thickness and health) with 63.6% of the subjects showing an improvement; a visual score of 0.6 out of a 4 point scale in M-TC staining (Masson's trichrome staining, assessing total mature fiber-forming collagen in the dermis—mainly Collagen I, […] and Collagen V) with 51.6% of the subjects showing an improvement; a visual score of 0.52 out of a 4 point scale for pro-Col (measuring new synthesis of Collagen I by skin fibroblasts in the dermis) with 51.6% of the subjects showing an improvement; and a visual score of 0.57 out of a 4 point scale for HA (measuring level of hyaluronic acid in both dermis and epidermis) with 50% of the subjects showing an improvement.

SMILES: CC1=C(/C=C/C(C)=C/C=C/C(C)=C/CO)C(C)(C)CCC1 [Retinol]
- subjects showing an improvement, HA: 50%
- subjects showing an improvement, HE staining: 63.6%
- subjects showing an improvement, M-TC staining: 51.6%
- subjects showing an improvement, pro-Col: 51.6%
- visual score HA (hyaluronic acid in dermis and epidermis) (out of a 4 point scale): 0.57
- visual score HE staining (viable epidermal thickness and health) (out of a 4 point scale): approximately 0.56
- visual score M-TC staining (total mature fiber-forming collagen in dermis) (out of a 4 point scale): 0.6
- visual score pro-Col (new synthesis of Collagen I) (out of a 4 point scale): 0.52
